Data set [1] has as its system VEGF-induced BRB breakdown (retinal leakage). As to the kind of experiment: VEGF-induced blood retinal barrier (BRB) breakdown, scanning ocular fluorophotometry of fluorescein leakage. Type of data set: in vivo, rabbit. The note with it: for Inhibition of VEGF-induced BRB breakdown (fluorescein leakage into posterior segment): rabbit eye, 1 mg (100 μl of 10 mg/ml suspension) intravitreal, then intravitreal VEGF, read 48 h later; for Block of VEGF-induced BRB breakdown (retinal leakage): corticosteroid administered systemically or intravitreally.
Procedure: (§1) Recombinant vascular endothelial growth factor (VEGF) was obtained from a supplier (R&D Systems). Female Dutch Belt rabbits were anaesthetized with isoflurane inhalation and topical 0.5% proparacaine hydrochloride, and intravitreal injection of one eye with 500 ng VEGF in sterile phosphate buffered saline (PBS) containing 0.1% bovine serum albumin was performed using a 28 guage ½ inch needle. The other eye is given the same volume of the vehicle, without the VEGF.
(§2) The extent of VEGF-induced BRB and BAB breakdown of the blood retinal barrier and the blood aqueous barrier was measured by scanning ocular fluorophotemetry (Fluorotron Master, Ocumetrics Inc.); at various times following intravitreal injection. In this model a fluorescent label is administered intravenously, following by determination of the amount of fluorescenin in the anterior and posterior segment and an indication of iridial and retinal leakage, respectively.
(§3) Sodium fluorescein in 1 ml saline was injected via the marginal ear vein at a concentration of 50 mg/kg, and ocular fluorescein levels in the vitreoretinal chamber and the anterior chamber was determined 50 minutes later.
(§4) Ten milligrams of each compound is added to 1 ml of sterile phosphate-buffered saline (PBS; ph 7.4). At day 0, 100 ml of a 10 mg/ml suspension of each steroid is injected into the vitreous of a rabbit eye. The PBS vehicle is injected into the other eye. VEGF is then injected at a pre-determined time (one month) thereafter, and BRB and BAB breakdown were measured by scanning ocular fluorophotometry 48 hrs later as described in Edelman et al., EXP.

A short description of data set [2]: Treatment of cystic macular edema with a GD implant (Example 4). Format: in vivo, human. The procedure:
A person diagnosed with cystic macular edema treated by administration of a biodegradable drug delivery system administered to each eye of the patient. […] A similar implant is administered subconjunctivally to the patient's right eye. […] No increase in intraocular pressure is seen one week after administration.

Data set [3] can be described thus: Treatment of wet ARMD with a GD composition (Example 5). Format: in vivo, human. The note with it: person, intravitreal 100 μl hyaluronic acid solution with about 1000 μg crystals; within one month. The procedure: A person with wet age-related macular degeneration is treated with an intravitreal injection of 100 μl of a hyaluronic acid solution containing about 1000 μg of fluticasone propionate crystals in suspension.

The subject of data set [4] is VEGF-induced BAB breakdown (iris leakage). As to the kind of experiment: VEGF-induced blood aqueous barrier (BAB) breakdown, scanning ocular fluorophotometry of fluorescein leakage. Type of data set: in vivo, rabbit. The note with it: for Inhibition of VEGF-induced BAB breakdown (fluorescein leakage into anterior segment): rabbit eye, 1 mg (100 μl of 10 mg/ml suspension) intravitreal, then intravitreal VEGF, read 48 h later; for Block of VEGF-induced BAB breakdown (iris leakage): corticosteroid administered systemically or intravitreally.
Procedure: as §1, §2, §3, §4

[5] abbreviates: rabbit, 500 ng VEGF intravitreal, 48 h, 50 min after i.v. fluorescein.

In the case of `CCC(=O)OCC(=O)[C@@]1(OC(=O)CC)[C@@H](C)C[C@H]2[C@@H]3CCC4=CC(=O)C=C[C@]4(C)[C@@]3(Cl)[C@@H](O)C[C@@]21C` [Beclomethasone dipropionate, beclomethasone dipropionate], in data set [1] (listed as beclomethasone 17,21-dipropionate), the “Inhibition of VEGF-induced BRB breakdown (fluorescein leakage into posterior segment)” value (from here on “Inhibition of VEGF-induced BRB breakdown”) is “completely blocks”. The Appearance of retina result in data set [2] (person, implant of about 1000 μg PLGA and about 1000 μg drug, intravitreal left eye, subconjunctival right eye, about 3 months after surgery) is “appears normal”. Further, the “Degeneration of the optic nerve” value in data set [2] (same patient, about 3 months after surgery) is listed as “appears to be reduced”. In data set [2] (same patient, one week after administration), the Intraocular pressure result is recorded as “No increase”.

With `CCC(=O)O[C@]1(C(=O)SCF)[C@H](C)C[C@H]2[C@@H]3C[C@H](F)C4=CC(=O)C=C[C@]4(C)[C@@]3(F)[C@@H](O)C[C@@]21C` [Fluticasone propionate, fluticasone propionate], in data set [1], the “Inhibition of VEGF-induced BRB breakdown” value is reported as “completely blocks”. For the same compound, the “Rate of neovascularization and related inflammation” value in data set [3] is “acceptable reduction”.

For `CC1(C)O[C@@H]2C[C@H]3[C@@H]4CCC5=CC(=O)C=C[C@]5(C)[C@@]4(F)[C@@H](O)C[C@]3(C)[C@]2(C(=O)CO)O1` [Triamcinolone acetonide, triamcinolone acetonide], the “Inhibition of VEGF-induced BRB breakdown” value in data set [1] is on record as “completely inhibited”. In addition, the “Block of VEGF-induced BRB breakdown (retinal leakage)” value in data set [1] (rabbit) is “completely blocked”. Moreover, the “Inhibition of VEGF-induced BAB breakdown (fluorescein leakage into anterior segment)” value in data set [4] is reported as “completely inhibited”. The “Block of VEGF-induced BAB breakdown (iris leakage)” value in data set [4] (rabbit) is on record as “completely blocked”.

Regarding `C[C@H]1C[C@H]2[C@@H]3CCC4=CC(=O)C=C[C@]4(C)[C@@]3(Cl)[C@@H](O)C[C@]2(C)[C@@]1(O)C(=O)CO` [beclomethasone], the “Inhibition of VEGF-induced BRB breakdown” value in data set [1] is “inhibited”. The “Block of VEGF-induced BRB breakdown (retinal leakage)” value in data set [1] (rabbit) was “completely blocked”. Besides, the “Inhibition of VEGF-induced BAB breakdown (fluorescein leakage into anterior segment)” value in data set [4] was “inhibited”. In addition, in data set [4] (rabbit), the “Block of VEGF-induced BAB breakdown (iris leakage)” value is reported as “completely blocked”.

For the compound VEGF, the “Increase in fluorescein contained in the vitreous versus normal untreated eyes” value in data set [1] (setting [5]) was “approximately 18 fold”. Moreover, the “Increase in fluorescein contained in the aqueous versus normal untreated eyes” value in data set [4] (setting [5]) was “approximately 6 fold”.

Source of the values: patent publication US10188665B2, “Ocular therapy using glucocorticoid derivatives selectively penetrating posterior segment tissues” (Allergan, Inc., priority 2005, dated 2019).
